Assay results published in US20160287571A1, “PHARMACEUTICAL COMPOSITIONS COMPRISING ANTIBACTERIAL AGENTS” (priority 2013, published 2016).
Like-named read-outs stand apart in the source and are kept apart here.

Legend:
Type in all cases: cell-based, Acinetobacter baumannii
[1] = tested on: A. baumannii NCTC 13303 (OXA 51, OXA 26); assay: MIC in Muller Hinton Agar (CLSI agar dilution)
Experimental: (§1) The antibacterial activity of combinations according to the invention against resistant bacterial strains was investigated. Minimum Inhibitory Concentration (MIC) for the combinations according to invention was determined in Muller Hinton Agar (MHA) (BD, USA) according to Clinical and Laboratory Standards Institute (CLSI) recommendations (Clinical and Laboratory Standards Institute (CLSI), Performance Standards for Antimicrobial Susceptibility Testing, 20th Informational Supplement, M 100-S20, Volume 30, No. 1, 2010). Typically, the test strains were adjusted to deliver about 10^4 CFU per spot with a multipoint inoculator (Applied Quality Services, UK). The plates were pored with MHA containing doubling concentration range of the test combinations according to invention. The plates were inoculated and were incubated at 35° C. for 18 hours.

[2] = tested on: A. baumannii J 144 (OXA 51, OXA 23); assay: MIC in Muller Hinton Agar (CLSI agar dilution)
Experimental: as §1

[3] = tested on: A. baumannii Q 1460648 (OXA 51, OXA 23); assay: MIC in Muller Hinton Agar (CLSI agar dilution)
Experimental: as §1

[4] = tested on: A. baumannii NCTC 13304 (OXA 51, OXA 27); assay: MIC in Muller Hinton Agar (CLSI agar dilution)
Experimental: as §1

[5] = tested on: A. baumannii NCTC 13301 (OXA 51, OXA 23); assay: MIC in Muller Hinton Agar (CLSI agar dilution)
Experimental: as §1

[6] = tested on: A. baumannii G 156 (OXA 51, OXA 23); assay: MIC in Muller Hinton Agar (CLSI agar dilution)
Experimental: as §1

[7] = tested on: A. baumannii NCTC 13305 (OXA 51, OXA 58); assay: MIC in Muller Hinton Agar (CLSI agar dilution)
Experimental: as §1

[8] = tested on: A. baumannii M 126 (OXA 51, OXA 23); assay: MIC in Muller Hinton Agar (CLSI agar dilution)
Experimental: as §1

[9] = tested on: A. baumannii NCTC 13302 (OXA 51, OXA 25); assay: MIC in Muller Hinton Agar (CLSI agar dilution)
Experimental: as §1

[10] = tested on: A. baumannii NCTC 13304 (OXA 51, OXA 27); assay: Time kill study; conditions: for Bacterial count: initial count 6.06 log CFU/ml
Experimental: (§2) The synergistic killing effect of the combinations according to invention was studied using time kill studies. In a typical time kill study, freshly grown cultures were diluted to the required cell density (initial starting inoculum) in Cation adjusted Muller Hinton broth medium (BD, USA). The antibacterial agents (either alone or in combination) at the required concentrations were added into the culture-containing medium. The samples were incubated under shaking condition (120 rpm) at 37° C. Enumeration of viable bacterial count was done every 2 hour by diluting in normal saline and plating on to the Tryptic Soya Agar plates (BD, USA). The plates were incubated for 24 hours to arrive at the viable bacterial count. The results are expressed in terms of Log CFU per […]. In general, the decrease of 1 Log CFU/ml, corresponds to 90% killing of bacteria. Similarly, 2 Log CFU/ml reductions indicates 99% killing of bacteria and 3 Log CFU/ml reductions is equal to 99.9% killing of bacteria.

[11] = tested on: A. baumannii NCTC 13302 (OXA 51, OXA 25); assay: Time kill study; conditions: for Bacterial count: initial count 6.54 log CFU/ml; for Effect on bacterial counts throughout the duration of the study (in words): A. baumannii NCTC 13302, summary of Table 3
Experimental: as §2

[12] = Acinetobacter baumannii, NCTC13303, agent alone, A. baumannii NCTC 13303, read-out: MIC
[13] = Acinetobacter baumannii, agent alone, A. baumannii J 144, read-out: MIC
[14] = Acinetobacter baumannii, agent alone, A. baumannii Q 1460648, read-out: MIC
[15] = Acinetobacter baumannii, NCTC13304, agent alone, A. baumannii NCTC 13304, read-out: MIC
[16] = Acinetobacter baumannii, NCTC13301, agent alone, A. baumannii NCTC 13301, read-out: MIC
[17] = Acinetobacter baumannii, agent alone, A. baumannii G 156, read-out: MIC
[18] = Acinetobacter baumannii, NCTC13305, agent alone, A. baumannii NCTC 13305, read-out: MIC
[19] = Acinetobacter baumannii, agent alone, A. baumannii M 126, read-out: MIC
[20] = Acinetobacter baumannii, NCTC13302, agent alone, A. baumannii NCTC 13302, read-out: MIC
[21] = 2 hours, agent alone at 4 mcg/ml
[22] = 4 hours, agent alone at 4 mcg/ml
[23] = 6 hours, agent alone at 4 mcg/ml

Molecule: O=C(NNC(=O)[C@@H]1CC[C@@H]2CN1C(=O)N2OS(=O)(=O)O)[C@@H]1CCCNC1 [Compound of Formula (I), (2S, 5R)-sulphuric acid mono-[2-(N′-[(R)-piperidin-3-carbonyl]-hydrazinocarbonyl)-7-oxo-1,6-diaza-bicyclo[3.2.1]oct-6-yl] ester]
- MIC [1, 12]: > 32 µg/mL
- MIC [2, 13]: > 32 µg/mL
- MIC [3, 14]: > 32 µg/mL
- MIC [4, 15]: > 32 µg/mL
- MIC [5, 16]: > 32 µg/mL
- MIC [6, 17]: > 32 µg/mL
- MIC [7, 18]: > 32 µg/mL
- MIC [8, 19]: > 32 µg/mL
- MIC [9, 20]: > 32 µg/mL
- Bacterial count [10, 21]: 7 Log CFU/ml
- Bacterial count [10, 22]: 7.55 Log CFU/ml
- Bacterial count [10, 23]: 8.1 Log CFU/ml
- Effect on bacterial counts throughout the duration of the study (in words) ([10]; A. baumannii NCTC 13304, summary of Table 4): did not reduce the bacterial counts
- Bacterial count [11, 21]: 7.5 Log CFU/ml
- Bacterial count [11, 22]: 7.8 Log CFU/ml
- Bacterial count [11, 23]: 7.95 Log CFU/ml
- Bacterial count ([11]; 8 hours, agent alone at 4 mcg/ml): 8.4 Log CFU/ml
- Effect on bacterial counts throughout the duration of the study (in words) [11]: did not reduce the bacterial counts

Molecule: C[C@@H](O)[C@H]1C(=O)N2C(C(=O)O)=C(SCCN=CN)C[C@H]12 [Imipenem, imipenem]
- MIC [1, 12]: > 32 µg/mL
- MIC [2, 13]: > 32 µg/mL
- MIC [3, 14]: 32 µg/mL
- MIC [4, 15]: 32 µg/mL
- MIC [5, 16]: 32 µg/mL
- MIC [6, 17]: 16 µg/mL
- MIC [7, 18]: 8 µg/mL
- MIC [8, 19]: 16 µg/mL
- MIC [9, 20]: > 32 µg/mL
- Bacterial count ([10]; 2 hours, agent alone at 16 mcg/ml): 6.34 Log CFU/ml
- Bacterial count ([10]; 4 hours, agent alone at 16 mcg/ml): 7.47 Log CFU/ml
- Bacterial count ([10]; 6 hours, agent alone at 16 mcg/ml): 7.07 Log CFU/ml
- Bacterial count ([11]; 2 hours, agent alone at 8 mcg/ml): 7.87 Log CFU/ml
- Bacterial count ([11]; 4 hours, agent alone at 8 mcg/ml): 8.27 Log CFU/ml
- Bacterial count ([11]; 6 hours, agent alone at 8 mcg/ml): 8.07 Log CFU/ml
- Bacterial count ([11]; 8 hours, agent alone at 8 mcg/ml): 8.47 Log CFU/ml

Molecule: C[C@@H](O)[C@H]1C(=O)N2C(C(=O)O)=C(S[C@@H]3CN[C@H](C(=O)N(C)C)C3)[C@H](C)[C@H]12 [Meropenem, meropenem]
- MIC [1, 12]: > 32 µg/mL
- MIC [3, 14]: 32 µg/mL
- MIC [4, 15]: 32 µg/mL
- MIC [6, 17]: 32 µg/mL
- MIC [7, 18]: 4 µg/mL
- MIC [8, 19]: 32 µg/mL

Molecule: CN(C)c1cc(NC(=O)CNC(C)(C)C)c(O)c2c1C[C@H]1C[C@H]3[C@H](N(C)C)C(O)=C(C(N)=O)C(=O)[C@@]3(O)C(O)=C1C2=O [Tigecycline, tigecycline]
- MIC ([1]; Acinetobacter baumannii, NCTC13303): 2 µg/mL
- MIC ([2]; Acinetobacter baumannii): 2 µg/mL
- MIC ([3]; Acinetobacter baumannii): 1 µg/mL
- MIC ([4]; Acinetobacter baumannii, NCTC13304): 0.5 µg/mL
- MIC ([5]; Acinetobacter baumannii, NCTC13301): 2 µg/mL
- MIC ([6]; Acinetobacter baumannii): 1 µg/mL
- MIC ([7]; Acinetobacter baumannii, NCTC13305): 0.5 µg/mL
- MIC ([8]; Acinetobacter baumannii): 0.5 µg/mL
- MIC ([9]; Acinetobacter baumannii, NCTC13302): 2 µg/mL
- Bacterial count ([11]; 2 hours, agent alone at 1 mcg/ml): 3.47 Log CFU/ml
- Bacterial count ([11]; 4 hours, agent alone at 1 mcg/ml): 3 Log CFU/ml
- Bacterial count ([11]; 6 hours, agent alone at 1 mcg/ml): 3 Log CFU/ml
- Bacterial count ([11]; 8 hours, agent alone at 1 mcg/ml): 3.23 Log CFU/ml
- Effect on bacterial counts throughout the duration of the study (in words) [11]: exhibited the reduction of the bacterial counts

Molecule: colistin
- MIC ([1]; agent alone, A. baumannii NCTC 13303): 1 µg/mL
- MIC ([2]; agent alone, A. baumannii J 144): 1 µg/mL
- MIC ([3]; agent alone, A. baumannii Q 1460648): 1 µg/mL
- MIC ([4]; agent alone, A. baumannii NCTC 13304): 1 µg/mL
- MIC ([5]; agent alone, A. baumannii NCTC 13301): 2 µg/mL
- MIC ([6]; agent alone, A. baumannii G 156): 1 µg/mL
- MIC ([7]; agent alone, A. baumannii NCTC 13305): 1 µg/mL
- MIC ([8]; agent alone, A. baumannii M 126): 1 µg/mL
- MIC ([9]; agent alone, A. baumannii NCTC 13302): 2 µg/mL
